Reference: the supplement of paper PMC10883282
Where a name gives a salt, the structure may show the parent alone. ± gives the standard deviation of the averaged measurements.

System: SW872
Assay: relative viability vs DMSO control (72 h) (fraction); higher = more viable cells
In short: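 Sarcoma cell lines were seeded in 384-well plates at densities chosen for 80–90% confluence, then 24 h later given 2.5 µl of serially diluted compound drawn from source plates spanning 10 mM to 0.0002 mM. They were held 72 h at 37 °C, 5% CO2, with 0.1% DMSO vehicle and a 5 µM positive control included. Relative viability was read with ATPLite as percent growth and averaged over up to triplicate wells. Rescaling placed full at 1 and none at 0.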

Row | Structure (SMILES) | relative viability (0.00017 µM) | relative viability (0.00051 µM) | relative viability (0.00152 µM) | relative viability (0.00457 µM) | relative viability (0.01372 µM) | relative viability (0.04115 µM) | relative viability (0.1235 µM) | relative viability (0.3704 µM) | relative viability (1.111 µM) | relative viability (3.333 µM) | relative viability (10 µM) | relative viability (2 pM) | relative viability (5 pM) | relative viability (15 pM) | relative viability (50 pM) | relative viability (0.00014 µM) | relative viability (0.00041 µM) | relative viability (0.0012 µM) | relative viability (0.0037 µM) | relative viability (0.011 µM) | relative viability (200 fM) | relative viability (600 fM)
1 | CCCS(=O)(=O)Nc1ccc(F)c(C(=O)c2c[nH]c3ncc(-c4ccc(Cl)cc4)cc23)c1F [Vemurafenib] | 1.05 ± 0.096 | 1.07 ± 0.099 | 1.08 ± 0.074 | 1.07 ± 0.067 | 1.07 ± 0.08 | 1.02 ± 0.033 | 0.863 ± 0.059 | 0.706 ± 0.063 | 0.642 ± 0.058 | 0.528 ± 0.034 | 0.342 ± 0.015 | – | – | – | – | – | – | – | – | – | – | –
2 | COCc1c(-c2cc3cc(C)cc(OC)c3s2)c2c(N)ncnn2c1CN1CCNC(=O)C1 [Rogaratinib] | 1.08 ± 0.043 | 1.07 ± 0.012 | 1.06 ± 0.045 | 1.03 ± 0.013 | 1.003 ± 0.0078 | 1.03 ± 0.011 | 1.03 ± 0.026 | 0.992 ± 0.028 | 0.952 ± 0.02 | 0.815 ± 0.051 | 0.513 ± 0.0093 | – | – | – | – | – | – | – | – | – | – | –
3 | C=CC(=O)N1CCC([C@@H]2CCNc3c(C(N)=O)c(-c4ccc(Oc5ccccc5)cc4)nn32)CC1 [Zanubrutinib] | 1.01 ± 0.032 | 1.03 ± 0.028 | 0.996 ± 0.038 | 1.01 ± 0.029 | 0.9666 ± 0.0096 | 0.954 ± 0.046 | 0.883 ± 0.066 | 0.923 ± 0.026 | 0.912 ± 0.034 | 0.929 ± 0.029 | 0.844 ± 0.022 | – | – | – | – | – | – | – | – | – | – | –
4 | COc1cccc2c1C(=O)c1c(O)c3c(c(O)c1C2=O)C[C@@](O)(C(=O)CO)C[C@@H]3O[C@H]1C[C@H](N)[C@H](O)[C@H](C)O1 [Doxorubicin Hydrochloride] | 1.04 ± 0.021 | 1.05 ± 0.046 | 1.04 ± 0.031 | 1.08 ± 0.036 | 1.06 ± 0.018 | 0.961 ± 0.024 | 0.527 ± 0.051 | 0.203 ± 0.011 | 0.172 ± 0.014 | 0.213 ± 0.005 | 0.175 ± 0.0045 | – | – | – | – | – | – | – | – | – | – | –
5 | CC(C)NC(=O)C1CCC(n2c(NC(=O)c3ccc(F)cc3)nc3ccc(CN4CCC(C(C)(C)O)CC4)cc32)CC1 (stereo not drawn) [Belizatinib] | 1.08 ± 0.04 | 1.07 ± 0.027 | 1.04 ± 0.052 | 1.05 ± 0.033 | 1.07 ± 0.01 | 1.05 ± 0.024 | 1.01 ± 0.019 | 0.817 ± 0.034 | 0.5729 ± 0.0013 | 0.412 ± 0.021 | 0.274 ± 0.0093 | – | – | – | – | – | – | – | – | – | – | –
6 | COc1cc2/c(=N/c3ccc(Br)cc3F)nc[nH]c2cc1OCC1CCN(C)CC1 [Vandetanib] | 1.02 ± 0.046 | 1.01 ± 0.052 | 1 ± 0.036 | 1.02 ± 0.041 | 1.03 ± 0.02 | 0.987 ± 0.051 | 0.964 ± 0.0059 | 0.91 ± 0.025 | 0.802 ± 0.03 | 0.5804 ± 0.0048 | 0.00997 ± 0.0034 | – | – | – | – | – | – | – | – | – | – | –
7 | C[C@@H]1CCN(C(=O)CC#N)C[C@@H]1N(C)c1ncnc2[nH]ccc12 [Tofacitinib] | 1.12 ± 0.03 | 1.08 ± 0.035 | 1.1 ± 0.028 | 1.09 ± 0.056 | 1.08 ± 0.032 | 1.04 ± 0.081 | 1.03 ± 0.056 | 1.02 ± 0.063 | 0.946 ± 0.068 | 0.887 ± 0.095 | 0.747 ± 0.064 | – | – | – | – | – | – | – | – | – | – | –
8 | Cn1cnc2c(F)c(Nc3ccc(Br)cc3F)c(C(=O)NOCCO)cc21 [Binimetinib] | 1.11 ± 0.046 | 1.06 ± 0.027 | 1.02 ± 0.059 | 1.05 ± 0.041 | 0.889 ± 0.038 | 0.724 ± 0.086 | 0.635 ± 0.041 | 0.584 ± 0.011 | 0.589 ± 0.02 | 0.583 ± 0.037 | 0.559 ± 0.026 | – | – | – | – | – | – | – | – | – | – | –
9 | Cc1nc(-c2cn3c(n2)-c2ccc(-c4cnn(C(C)(C)C(N)=O)c4)cc2OCC3)n(C(C)C)n1 [Taselisib] | 1 ± 0.044 | 0.996 ± 0.03 | 1.02 ± 0.021 | 0.9808 ± 0.006 | 0.93 ± 0.061 | 0.88 ± 0.017 | 0.758 ± 0.029 | 0.643 ± 0.012 | 0.504 ± 0.015 | 0.381 ± 0.015 | 0.284 ± 0.018 | – | – | – | – | – | – | – | – | – | – | –
10 | Nc1cc(C(F)(F)F)c(-c2cc(N3CCOCC3)nc(N3CCOCC3)n2)cn1 [Buparlisib] | 0.994 ± 0.037 | 0.96 ± 0.046 | 0.995 ± 0.031 | 0.958 ± 0.019 | 0.964 ± 0.025 | 0.946 ± 0.055 | 0.901 ± 0.016 | 0.765 ± 0.035 | 0.543 ± 0.021 | 0.249 ± 0.014 | 0.158 ± 0.0092 | – | – | – | – | – | – | – | – | – | – | –
11 | Cc1cnc(Nc2ccc(OCCN3CCCC3)cc2)nc1Nc1cccc(S(=O)(=O)NC(C)(C)C)c1 [Fedratinib] | 1.04 ± 0.013 | 1.06 ± 0.027 | 1.05 ± 0.034 | 1.01 ± 0.073 | 1.04 ± 0.044 | 1.03 ± 0.075 | 0.942 ± 0.064 | 0.699 ± 0.049 | 0.408 ± 0.024 | 0.16 ± 0.018 | 0.00193 ± 0.0011 | – | – | – | – | – | – | – | – | – | – | –
12 | COc1cc2c(Oc3ccc4[nH]c(C)cc4c3F)ncnc2cc1OCCCN1CCCC1 [Cediranib] | 1.04 ± 0.024 | 1.05 ± 0.039 | 1.06 ± 0.042 | 1.05 ± 0.016 | 1.063 ± 0.0043 | 1.04 ± 0.035 | 1.06 ± 0.027 | 1.03 ± 0.032 | 0.982 ± 0.022 | 1.05 ± 0.021 | 1.026 ± 0.002 | – | – | – | – | – | – | – | – | – | – | –
13 | CC(=O)Nc1cccc(-n2c(=O)n(C3CC3)c(=O)c3c(Nc4ccc(I)cc4F)n(C)c(=O)c(C)c32)c1 [Trametinib] | 1.11 ± 0.046 | 1.05 ± 0.055 | 0.856 ± 0.059 | 0.674 ± 0.046 | 0.597 ± 0.0061 | 0.607 ± 0.034 | 0.593 ± 0.008 | 0.593 ± 0.022 | 0.562 ± 0.015 | 0.549 ± 0.031 | 0.564 ± 0.014 | – | – | – | – | – | – | – | – | – | – | –
14 | CC(C)N1CCN(Cc2cnc(-c3cc(-c4cccc5[nH]ccc45)cc4[nH]ncc34)o2)CC1 [Nemiralisib] | 0.975 ± 0.035 | 0.982 ± 0.036 | 0.945 ± 0.043 | 0.945 ± 0.018 | 0.916 ± 0.033 | 0.949 ± 0.042 | 0.952 ± 0.018 | 0.896 ± 0.014 | 0.819 ± 0.032 | 0.622 ± 0.043 | 0.448 ± 0.017 | – | – | – | – | – | – | – | – | – | – | –
15 | Cc1cc(Nc2ncnc3ccc(NC4=NC(C)(C)CO4)cc23)ccc1Oc1ccn2ncnc2c1 [Tucatinib] | 1.07 ± 0.017 | 1.08 ± 0.04 | 1.08 ± 0.016 | 1.09 ± 0.037 | 1.07 ± 0.051 | 1.08 ± 0.011 | 1.08 ± 0.017 | 1.04 ± 0.035 | 1.06 ± 0.04 | 1.03 ± 0.045 | 0.994 ± 0.038 | – | – | – | – | – | – | – | – | – | – | –
16 | COc1cc2c(cc1O)CCN[C@]21CS[C@@H]2c3c(OC(C)=O)c(C)c4c(c3[C@H](COC1=O)N1[C@@H]2[C@H]2c3c(cc(C)c(OC)c3O)C[C@@H]([C@@H]1O)N2C)OCO4 [Trabectedin] | – | – | – | – | – | – | – | – | – | – | – | 1.045 ± 0.0069 | 0.986 ± 0.05 | 0.835 ± 0.034 | 0.606 ± 0.1 | 0.281 ± 0.028 | 0.158 ± 0.0096 | 0.202 ± 0.01 | 0.245 ± 0.0073 | 0.183 ± 0.0041 | 1.03 ± 0.037 | 1.038 ± 0.0094
17 | C[C@@H]1COCCN1c1cc(-c2ccnn2C)c2ccnc(-c3ccn[nH]3)c2n1 | 0.994 ± 0.054 | 1.01 ± 0.018 | 1.01 ± 0.014 | 1.04 ± 0.037 | 0.953 ± 0.043 | 0.867 ± 0.013 | 0.714 ± 0.047 | 0.452 ± 0.043 | 0.282 ± 0.012 | 0.229 ± 0.011 | 0.197 ± 0.0092 | – | – | – | – | – | – | – | – | – | – | –
18 | Cc1cc(C)c(/C=C2\C(=O)Nc3ccccc32)[nH]1 [Semaxanib] | 0.968 ± 0.038 | 0.968 ± 0.024 | 0.938 ± 0.084 | 0.933 ± 0.067 | 0.936 ± 0.062 | 0.953 ± 0.067 | 0.979 ± 0.022 | 0.99 ± 0.028 | 0.963 ± 0.042 | 0.972 ± 0.031 | 0.8936 ± 0.0083 | – | – | – | – | – | – | – | – | – | – | –
